Data set [1] deals with HEK 293 cells stably expressing human CD14 and TLR4/MD2. Nature of the data set: LPS membrane binding in HEK-CD14-TLR4/MD2 cells. The conditions noted are these: 25 nM LPS, 1.5 h 37° C.; 0.5 μM PAC; antibodies 500 nM in binding sites. The class given is cell-based. The method, then: (§1) Analysis of LPS membrane binding and endocytosis. Human embryonic kidney cells (HEK 293) stably expressing human CD14 and TLR4/MD2 (HEK-CD14-TLR4/MD2; Invivogen) were grown in chambered wells and incubated with 25 nM LPS (E. coli serotype O55:B5, Sigma) in the absence or presence of 0.5 μM LH20 PAC (Dial>6K) for 1.5 h at 37° C. […] After incubation, the cells were washed with PBS (10 min) twice and either fixed (with 3.7% paraformaldehyde) to assess LPS membrane binding or fixed and permeabilized (with 0.1% Triton X-100) to determine LPS internalization. After blocking with 1% normal goat serum, membrane bound or internalized LPS was detected using a goat anti-LPS antibody (O/K serotype-specific, Abcam) conjugated to fluorescein. Nuclei were counterstained with DAPI. Imaging was performed using an Olympus IX-71 microscope. The relative amounts of membrane-associated or intracellular fluorescence were quantified by image analysis using Image J software (NIH, v. 1.37). Data is reported as the mean channel fluorescence from membrane-associated or internalized LPS and represents the analysis of 10 to 20 cells from each sample (minimum 10 measurements per each cell). Merged images were produced using Photoshop CS2 (ver. 9).

For data set [2] the test system is unchanged. In words: LPS endocytosis (internalization) in HEK-CD14-TLR4/MD2 cells. In kind it is cell-based. The conditions noted are these: 25 nM LPS, 1.5 h 37° C.; 0.5 μM PAC; antibodies 500 nM in binding sites. The method, then: as §1
In the next data set the test system is HEK-CD14-TLR4/MD2 cells. Nature of the data set: Cytotoxicity, CellTiter96 cell proliferation assay. In kind it is cell-based, human. The settings on record: 48 h culture. Here is the method:
Cytotoxicity assays—Cellular toxicity was measured using a calorimetric cell proliferation assay (CellTiter96™, Promega). HEK-CD14-TLR4/MD2 cells were seeded into the wells of a 96-well plate (1×10^4 cells/well) and cultured with a dose range of test compounds for 48 h prior to assay according to the manufacturer's instructions.

For data set [3], the system named is FITC-labeled LPS (from E. coli 055:B5). Nature of the data set: Fluorescence-based pull down assay of FITC-LPS with Sepharose-immobilized PACs. In kind it is binding, Escherichia coli. The settings on record: for IC50: PAC beads equilibrated with lipid A, 3 μg/mL FITC-LPS (approx. 3 nM). The method, then: PAC and catechin immobilization—Purified PACs and catechin (Sigma-Aldrich) were immobilized onto activated thiol-Sepharose® 4B (Sigma-Aldrich) via a (N-[p-maleimidophenyl]isocyanate) (PMPI; Pierce) crosslinker. Sepharose® was swelled in deionized water for 1 hour (1 g dry material in 15 mL H2O). The material was then washed using fresh dI-H2O over five suspend/centrifuge/decant cycles (total 50 mL per gram dry starting material). Suspension was accomplished using a vortex and centrifuge steps were conducted at 3,000 g for five minutes. The Sepharose® material (total volume 5 mL per gram starting material) was then rinsed three times with ethanol (total volume 30 mL per gram starting material). The PMPI crosslinker was incubated with the rinsed Sepharose material for 1 hour at room temperature under constant agitation using a 10-fold molar excess of PMPI over the thiol-group concentration with 3% dimethylsulfoxide in ethanol (10 mL per gram starting material). Incubation was followed by centrifuging, decanting, and rinsing in 50% ethanol for three cycles. The Sepharose was then incubated overnight at 4° C. in ethanol with PAC or catechin using a 10-fold molar excess of analyte in 50% ethanol (10 mL per gram starting material). As a final step, the Sepharose was rinsed over four cycles using 50% ethanol (40 mL total per gram starting material) and resuspended in 0.02% sodium azide in H2O (16 mL final volume per gram starting material). The materials were stored in the dark at 4° C. until use. PAC concentrations for bead sets were determined by Prussian blue assay.
Fluorescence-based pull down assays for lipopolysaccharide (LPS) were conducted in 50 mM TRIS at pH 8.0 using Sepharose-immobilized PACs and agarose-immobilized polymyxin B (Sigma-Aldrich, St. Louis, Mo.). […] The fluorescence of the FITC-labeled LPS (from E. coli 055:B5; Sigma-Aldrich) was measured using a Tecan XSafire monochrometer-based micro plate reader at 495 nm excitation and 520 nm emission (5 nm bandwidths). […]

The test system of data set [4] is LPS-FITC (E. coli 055:B5). Nature of the data set: LPS-FITC binding by PACs immobilized on glass waveguide (stationary assay). The conditions noted are these: patterned at 10 mg/mL via PMPI; LPS-FITC 1 hour. More on the design: species or system Escherichia coli. From the text: Immobilization of PACs and LPS binding assay—To determine the ability of PAC materials to effectively bind bacteria and bacterial cell components upon immobilization to a solid support, PACs from cranberry and grape juices were covalently attached to the surface of a glass microscope slide (waveguide) using a modification of a common technique used for protein immobilization (Rowe et al., Anal. Chem., 71, 3846 (1999)). Catechin monomer and buffer only areas were also included as controls. Briefly, the waveguides, glass microscope slides (Daigger, Wheeling, Ill.), were cleaned by immersion in potassium hydroxide/methanol solution (Cras et al., Biosens. Bioelectron., 14, 683 (1999)) followed by rinsing and drying. The clean waveguides were then incubated with 2% (3-mercaptopropyl)triethoxysilane (Pierce Chemicals, Rockford, Ill.) in toluene for 45 minutes followed by rinsing and drying. The slides were immersed in 1.8 mM N-[p-maleimidophenyl]isocyanate (PMPI) in ethanol for 1 hour. The maleimide-group of PMPI reacts with the sulfhydryl-group provided by the silane reaction leaving the isocyanate-group free to react with the hydroxyl-groups of PACs. […] Slides were imaged using evanescent wave fluorescence spectroscopy with excitation at 496 nm and emission collected above 515 nm. […]

Like-named read-outs stand apart in the source and are kept apart here.

Broadly, the IC50 is the concentration at which inhibition is half-maximal. Regarding diphosphoryl lipid A, the “decrease in membrane-bound LPS (LPS binding inhibition)” value in data set [1] is “did not significantly reduce LPS membrane binding”. In addition, the “inhibition of LPS endocytosis” value in data set [2] is listed as 84%. Also, the “concentrations at which no toxicity was elicited” value in the data set on HEK-CD14-TLR4/MD2 cells is reported as “below 3 μM”. Besides, the IC50 in data set [3] (read-out: IC50, inhibition of FITC-LPS binding by immobilized PACs from cranberries) turned out to be 500 nM; in data set [3] (read-out: IC50, inhibition of FITC-LPS binding by immobilized PACs from tea) it was 100 nM. Also, in data set [3] (lipid A concentrations as high as 100 μM), the “inhibition of FITC-LPS binding by immobilized PACs at high lipid A concentration” value is listed as at most 80%.
For the substance catechin, in data set [4], the “binding of LPS-FITC by material immobilized on waveguide” value was “no binding even at the highest concentrations tested”.
